Test system: 186277-243-T-J2-PDC complex spheroid viability
Assay: Anticancer human tumor 186277-243-T-J2-PDC patient-derived colon adenocarcinoma cell line growth inhibition [GQUAD]
Conditions: for IC50: curve of first compound; for viability, T/C: stronger effect = lower value
Procedure, shortened: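 Viability of tumor cells grown as complex spheroids with endothelial and stromal cells, exposed to drug combinations. Top concentration at or near clinical Cmax (else 10 microM), diluted in half-log increments.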

[1] = second compound 0.0316 µM, first compound 0.0316 µM
[2] = second compound 0.0316 µM, first compound 0.1 µM
[3] = second compound 0.0316 µM, first compound 0.316 µM
[4] = second compound 0.0316 µM, first compound 1 µM
[5] = second compound 0.0316 µM, first compound 3.16 µM
[6] = second compound 0.0316 µM, first compound 10 µM
[7] = second compound 0.1 µM, first compound 0.0316 µM
[8] = second compound 0.1 µM, first compound 0.1 µM
[9] = second compound 0.1 µM, first compound 0.316 µM
[10] = second compound 0.1 µM, first compound 1 µM
[11] = second compound 0.1 µM, first compound 3.16 µM
[12] = second compound 0.1 µM, first compound 10 µM
[13] = second compound 0.316 µM, first compound 0.0316 µM
[14] = second compound 0.316 µM, first compound 0.1 µM
[15] = second compound 0.316 µM, first compound 0.316 µM
[16] = second compound 0.316 µM, first compound 1 µM
[17] = second compound 0.316 µM, first compound 3.16 µM
[18] = second compound 0.316 µM, first compound 10 µM
[19] = second compound 1 µM, first compound 0.0316 µM
[20] = second compound 1 µM, first compound 0.1 µM
[21] = second compound 1 µM, first compound 0.316 µM
[22] = second compound 1 µM, first compound 1 µM
[23] = second compound 1 µM, first compound 3.16 µM
[24] = second compound 1 µM, first compound 10 µM
[25] = second compound 3.16 µM, first compound 0.0316 µM
[26] = second compound 3.16 µM, first compound 0.1 µM
[27] = second compound 3.16 µM, first compound 0.316 µM
[28] = second compound 3.16 µM, first compound 1 µM
[29] = second compound 3.16 µM, first compound 3.16 µM
[30] = second compound 3.16 µM, first compound 10 µM
[31] = second compound 10 µM, first compound 0.0316 µM
[32] = second compound 10 µM, first compound 0.1 µM
[33] = second compound 10 µM, first compound 0.316 µM
[34] = second compound 10 µM, first compound 1 µM
[35] = second compound 10 µM, first compound 3.16 µM
[36] = second compound 10 µM, first compound 10 µM
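Wherever viability, T/C is given: 100% = DMSO vehicle control viability.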

O=C(c1cc(Cc2n[nH]c(=O)c3ccccc23)ccc1F)N1CCN(C(=O)C2CC2)CC1 + Cc1cnc(CNC(=O)c2c(=O)c3ccc(N4CCCN(C)CC4)nc3n3c2sc2ccccc23)cn1 gave an IC50 (second compound 0.0316 µM) greater than 10000 nM, an IC50 (second compound 0.1 µM) of 5010 nM and an IC50 (second compound 0.316 µM) greater than 10000 nM. It also gave an IC50 (second compound 1 µM) of less than 31.6 nM, an IC50 (second compound 3.16 µM) of less than 31.6 nM and an IC50 (second compound 10 µM) of less than 31.6 nM. The viability, T/C [1] was 99.9%, the viability, T/C [2] was 78.8% and the viability, T/C [3] was 83.2%. It also gave a viability, T/C [4] of 83.6%, a viability, T/C [5] of 60.9% and a viability, T/C [6] of 53%. It also gave a viability, T/C [7] of 80.7%, a viability, T/C [8] of 62.8% and a viability, T/C [9] of 62.7%. For the same compound, the viability, T/C [10] was 60.7%, the viability, T/C [11] was 53% and the viability, T/C [12] was 45.9%. For the same compound, the viability, T/C [13] was 64.6%, the viability, T/C [14] was 56.8% and the viability, T/C [15] was 64.6%. For the same compound, the viability, T/C [16] was 62.9%, the viability, T/C [17] was 50.8% and the viability, T/C [18] was 48.4%. It also gave a viability, T/C [19] of 46.3%, a viability, T/C [20] of 48.4% and a viability, T/C [21] of 43.5%. It also gave a viability, T/C [22] of 47.9%, a viability, T/C [23] of 50% and a viability, T/C [24] of 49%. For the same compound, the viability, T/C [25] was 44.2%, the viability, T/C [26] was 39.2% and the viability, T/C [27] was 38.3%. It also gave a viability, T/C [28] of 38.2%, a viability, T/C [29] of 43.5% and a viability, T/C [30] of 38.9%. It also gave a viability, T/C [31] of 33.1%, a viability, T/C [32] of 42.3% and a viability, T/C [33] of 34.7%. It also gave a viability, T/C [34] of 43.8%, a viability, T/C [35] of 49.5% and a viability, T/C [36] of 38.9%.
C#Cc1c(F)ccc2cc(O)cc(-c3ncc4c(N5CC6CCC(C5)N6)nc(OCC56CCCN5CC(F)C6)nc4c3F)c12 (stereo not drawn) + Cc1[nH]c2ccc(F)cc2c1-c1nc2c3cccnc3c3ncccc3c2[nH]1 was tested, and the IC50 (second compound 0.0316 µM) was 74.3 nM, the IC50 (second compound 0.1 µM) was 85.4 nM and the IC50 (second compound 0.316 µM) was 64.1 nM. The IC50 (second compound 1 µM) was 61.3 nM, the IC50 (second compound 3.16 µM) was 51.7 nM and the IC50 (second compound 10 µM) was less than 31.6 nM. For the same compound, the viability, T/C [1] was 94.1%, the viability, T/C [2] was 34.5% and the viability, T/C [3] was 14.3%. The viability, T/C [4] was 7.64%, the viability, T/C [5] was 7.24% and the viability, T/C [6] was 5.55%. It also gave a viability, T/C [7] of 106%, a viability, T/C [8] of 41.1% and a viability, T/C [9] of 14.2%. It also gave a viability, T/C [10] of 8.6%, a viability, T/C [11] of 7.78% and a viability, T/C [12] of 5.66%. For the same compound, the viability, T/C [13] was 78.1%, the viability, T/C [14] was 30.7% and the viability, T/C [15] was 18.1%. It also gave a viability, T/C [16] of 7.67%, a viability, T/C [17] of 7.43% and a viability, T/C [18] of 3.69%. For the same compound, the viability, T/C [19] was 68.6%, the viability, T/C [20] was 36% and the viability, T/C [21] was 17.7%. For the same compound, the viability, T/C [22] was 7.93%, the viability, T/C [23] was 6.21% and the viability, T/C [24] was 5.18%. The viability, T/C [25] was 56%, the viability, T/C [26] was 42.3% and the viability, T/C [27] was 19.2%. It also gave a viability, T/C [28] of 10.7%, a viability, T/C [29] of 5.86% and a viability, T/C [30] of 3.99%. For the same compound, the viability, T/C [31] was 47.4%, the viability, T/C [32] was 38.2% and the viability, T/C [33] was 16.8%. The viability, T/C [34] was 7.64%, the viability, T/C [35] was 7.32% and the viability, T/C [36] was 2.6%.
Compound O=c1[nH]cc(F)c(=O)[nH]1 + Cc1[nH]c2ccc(F)cc2c1-c1nc2c3cccnc3c3ncccc3c2[nH]1 has an IC50 (second compound 0.0316 µM) greater than 10000 nM, an IC50 (second compound 0.1 µM) greater than 10000 nM and an IC50 (second compound 0.316 µM) of 8530 nM. It also gave an IC50 (second compound 1 µM) greater than 10000 nM, an IC50 (second compound 3.16 µM) of 7710 nM and an IC50 (second compound 10 µM) of 6670 nM. The viability, T/C [1] was 107%, the viability, T/C [2] was 99.2% and the viability, T/C [3] was 110%. For the same compound, the viability, T/C [4] was 106%, the viability, T/C [5] was 67.7% and the viability, T/C [6] was 51.4%. The viability, T/C [7] was 94.7%, the viability, T/C [8] was 86.5% and the viability, T/C [9] was 110%. The viability, T/C [10] was 109%, the viability, T/C [11] was 80.9% and the viability, T/C [12] was 51.7%. It also gave a viability, T/C [13] of 84.9%, a viability, T/C [14] of 101% and a viability, T/C [15] of 106%. It also gave a viability, T/C [16] of 124%, a viability, T/C [17] of 80.7% and a viability, T/C [18] of 45.1%. For the same compound, the viability, T/C [19] was 98.2%, the viability, T/C [20] was 93.7% and the viability, T/C [21] was 93.5%. For the same compound, the viability, T/C [22] was 87.7%, the viability, T/C [23] was 80.7% and the viability, T/C [24] was 51.4%. For the same compound, the viability, T/C [25] was 97.9%, the viability, T/C [26] was 94% and the viability, T/C [27] was 110%. The viability, T/C [28] was 99.4%, the viability, T/C [29] was 68.6% and the viability, T/C [30] was 44.6%. It also gave a viability, T/C [31] of 106%, a viability, T/C [32] of 108% and a viability, T/C [33] of 110%. It also gave a viability, T/C [34] of 116%, a viability, T/C [35] of 69.3% and a viability, T/C [36] of 39.5%.
In the case of CC(=O)O[C@H]1C(=O)[C@@]2(C)[C@H]([C@H](OC(=O)c3ccccc3)[C@]3(O)C[C@H](OC(=O)[C@H](O)[C@@H](NC(=O)c4ccccc4)c4ccccc4)C(C)=C1C3(C)C)[C@]1(OC(C)=O)CO[C@@H]1C[C@@H]2O + Cc1cnc(CNC(=O)c2c(=O)c3ccc(N4CCCN(C)CC4)nc3n3c2sc2ccccc23)cn1, the IC50 (second compound 0.0316 µM) is reported as less than 31.6 nM, the IC50 (second compound 0.1 µM) is reported as less than 31.6 nM and the IC50 (second compound 0.316 µM) is reported as less than 31.6 nM. For the same compound, the IC50 (second compound 1 µM) was less than 31.6 nM, the IC50 (second compound 3.16 µM) was less than 31.6 nM and the IC50 (second compound 10 µM) was less than 31.6 nM. For the same compound, the viability, T/C [1] was 25.6%, the viability, T/C [2] was 11.8% and the viability, T/C [3] was 7.83%. It also gave a viability, T/C [4] of 7.31%, a viability, T/C [5] of 7.28% and a viability, T/C [6] of 7.34%. For the same compound, the viability, T/C [7] was 26.4%, the viability, T/C [8] was 18.3% and the viability, T/C [9] was 11.9%. It also gave a viability, T/C [10] of 11.9%, a viability, T/C [11] of 11% and a viability, T/C [12] of 10.4%. For the same compound, the viability, T/C [13] was 32.6%, the viability, T/C [14] was 18.1% and the viability, T/C [15] was 18.1%. It also gave a viability, T/C [16] of 20.5%, a viability, T/C [17] of 17% and a viability, T/C [18] of 16.6%. It also gave a viability, T/C [19] of 29.4%, a viability, T/C [20] of 29.9% and a viability, T/C [21] of 23.1%. It also gave a viability, T/C [22] of 25.1%, a viability, T/C [23] of 23.8% and a viability, T/C [24] of 21.5%. It also gave a viability, T/C [25] of 24.4%, a viability, T/C [26] of 27% and a viability, T/C [27] of 24%. The viability, T/C [28] was 23.5%, the viability, T/C [29] was 25.5% and the viability, T/C [30] was 22.3%. For the same compound, the viability, T/C [31] was 29.8%, the viability, T/C [32] was 25.5% and the viability, T/C [33] was 26.1%. The viability, T/C [34] was 25.2%, the viability, T/C [35] was 24.8% and the viability, T/C [36] was 23.7%.
